Laboratory results published in patent publication US8809057B2, “Methods of evaluating gene expression levels” (Raytheon BBN Technologies Corp., priority 2012, dated 2014).

B1: LacI: test regulatory protein (Lac repressor) binding Hef1a-LacO1Oid (protein, UniProt P03023 1-360, looked up)
Lactose operon repressor: MKPVTLYDVAEYAGVSYQTVSRVVNQASHVSAKTREKVEAAMAELNYIPNRVAQQLAGKQSLLIGVATSSLALHAPSQIVAAIKSRADQLGASVVVSMVERSGVEACKAAVHNLLAQRVSGLIINYPLDDQDAIAVEAACTNVPALFLDVSDQTPINSIIFSHEDGTRLGVEHLVALGHQQIALLAGPLSSVSARLRLAGWHKYLTRNQIQPIAEREGDWSAMSGFQQTMQMLNEGIVPTAMLVANDQMALGAMRAITESGLRVGADISVVGYDDTEDSSCYIPPLTTIKQDFRLLGQTSVDRLLQLSQGQAVKGNQLLPVSLVKRKTTLAPNTQTASPRALADSLMQLARQVSRLESGQ

Experiments:
Assay type in all cases: cell-based
[1] = system: Tre genetic element (rtTA); test: Example 1 multiplex circuit: small molecule effector (dox) transfer curve, input reporter EBFP2 by FACS; details: Example 1, FIG. 7, normalized input reporter EBFP2, HEK 293 FT
Source text: Both the regulatory protein transcription unit and the input reporter protein transcription unit are under the control of the small molecule effector doxycycline (dox). In this example, the activity of the small molecule effector (dox) is mediated through an effector transcription unit. The effector transcription unit comprises a constitutive effector genetic element (pHef1a) and a coding sequence for an effector-regulated protein (rtTA), wherein the constitutive effector genetic element (pHef1a) controls expression of the effector-controlled protein (rtTA). […]
The input transcription unit comprises a genetic element responsive to a small molecule effector (Tre) and a coding sequence for the input reporter protein (EBFP2), wherein the genetic element responsive to the effector-regulated protein (Tre) controls expression of the input reporter protein (EBPF2). […] The input reporter protein EBFP2 has a blue fluorescence emission. […]
(§1) The cells are then subjected to FACS analysis and the amounts of input, output and constitutive protein fluorescence is measured for each cell. […]
(§2) While the colors for the input, output and constitutive protein fluorescence are selected to have as little overlap as possible, there is some inherent overlap between the different colors. […]

[2] = system: Tre genetic element (rtTA); test: Example 2 multiplex circuit: small molecule effector (dox) transfer curve, input reporter EYFP; details: Example 2, FIG. 10, normalized input reporter EYFP
Source text: The multiplex circuit to be characterized is shown in FIG. 9. he regulatory protein transcription unit and the input reporter protein transcription unit, which are co-expressed in this example, are under the control of the small molecule effector doxycycline (dox), which binds to the constitutively expressed protein rtTA to regulate transcription from the Tre genetic element. In this example, the effector transcription unit comprises a constitutive effector genetic element (CAG) and a coding sequence for an effector-regulated protein (rtTA), wherein the constitutive effector genetic element (CAG) controls expression of the effector-controlled protein (rtTA). In this example, the effector transcription unit further comprises coding sequence for the VP16-GAL4 activator which binds UAS-T1 in the output transcription unit. In the absence of dox, Tal1 is not expressed and the constitutively expressed VP16-GAL4 activator binds to UAS-T1, leading to expression of the mKate output reporter. The effector transcription unit contains a coding sequence for a 2A self-cleaving peptide allowing for expression of rtTA and VP16-GAL4 from the same construct. The test regulatory protein transcription unit and the input transcription unit are co-expressed from a genetic element responsive to a small molecule effector (Tre). […] The input reporter protein EYFP has a yellow fluorescence emission. […]

Hef1a-LacO1Oid = test: Example 1 multiplex circuit: regulatory protein (LacI) transfer curve, output reporter EYFP by FACS; details: Example 1, FIG. 8, normalized output reporter EYFP
Source text: The regulatory protein transcription unit comprises a genetic element responsive to a small molecule effector (Tre) and a coding sequence for the regulatory protein (LacI), wherein the genetic element responsive to the genetic element responsive to the effector-regulated protein (Tre) controls expression of the regulatory protein (LacI). In the present case, the genetic element responsive to the effector-regulated protein (Tre) is responsive to the effector-controlled protein (rtTA).
The output transcription unit comprising a genetic element responsive to the regulatory protein (Hef1a-LacO1Oid) and a coding sequence for the output reporter protein (EYFP), wherein the genetic element responsive to the regulatory protein (Hef1a-LacO1Oid) controls expression of the output reporter protein (EYFP). The output reporter protein EYFP has a yellow fluorescence emission. […]
as §1, §2

| Molecule | dox level at which the level of IFP saturates at a high value [1] | dox level at which the level of IFP stays low regardless of the plasmid count [1] | dox level at which the level of IFP saturates at a high value [2] | dox level at which the level of IFP stays low regardless of the plasmid count [2] | repression of the output of Hef1a-LacO1Oid (Hef1a-LacO1Oid) |
| --- | --- | --- | --- | --- | --- |
| C[C@H]1c2cccc(O)c2C(=O)C2=C(O)[C@]3(O)C(=O)C(C(N)=O)=C(O)[C@@H](N(C)C)[C@@H]3[C@@H](O)[C@@H]21 [dox, doxycycline] | more than 200 nM | less than or equal to 3 nM | more than 200 nM | less than or equal to 3 nM |  |
| B1 |  |  |  |  | 100 fold |
